From the supplement of paper PMC8960247
Where a name gives a salt, the structure may show the parent alone. ± gives the standard error.

Columns and labels:
[1] = system: 621-102 (TSC2-deficient); assay: relative viability vs DMSO; higher = less cytotoxic; conditions: serum: 10% FBS, 72 h
[2] = system: 621-103 (TSC2-rescued); assay: as above; conditions: serum: 10% FBS, 72 h
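Note: immortalized renal angiomyolipoma cells stably carrying empty vector or TSC2, dosed in 384-well plates in DMEM, viability normalized to vehicle-treated wells within each plate.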

Row | SMILES | relative viability ([1]; 0.0001 µM) [%] | relative viability ([1]; 0.001 µM) [%] | relative viability ([1]; 0.01 µM) [%] | relative viability ([1]; 0.1 µM) [%] | relative viability ([1]; 1 µM) [%] | relative viability ([1]; 10 µM) [%] | relative viability ([2]; 0.0001 µM) [%] | relative viability ([2]; 0.001 µM) [%] | relative viability ([2]; 0.01 µM) [%] | relative viability ([2]; 0.1 µM) [%] | relative viability ([2]; 1 µM) [%] | relative viability ([2]; 10 µM) [%]
1 | CC(=O)NC[C@H]1CN(c2ccc(N3CCOCC3)c(F)c2)C(=O)O1 [Linezolid] | 99.5 ± 7.5 | 108 ± 2.5 | 102.8 ± 0.25 | 105 ± 2.2 | 102 ± 4.4 | 101.1 ± 0.19 | 105 ± 5.3 | 110 ± 4.4 | 98.2 ± 2.4 | 101 ± 0.73 | 103 ± 1.3 | 104 ± 3
2 | CN(C)C(=O)C(CCN1CCC(O)(c2ccc(Cl)cc2)CC1)(c1ccccc1)c1ccccc1 [Loperamide HCl] | 112.8 ± 0.39 | 107 ± 1.7 | 99.2 ± 2.1 | 109 ± 4.1 | 106 ± 4.2 | 82.5 ± 1.3 | 91.7 ± 4.4 | 84.8 ± 2.2 | 97.2 ± 1.4 | 98.2 ± 1.8 | 92.17 ± 0.64 | 59.5 ± 0.85
3 | O=c1cc(-c2ccc(O)c(O)c2)oc2cc(O)cc(O)c12 [Luteolin (Luteolol)] | 108.1 ± 0.74 | 104 ± 2.9 | 104.7 ± 0.25 | 100 ± 3 | 105.3 ± 0.74 | 101.9 ± 0.18 | 107.6 ± 0.4 | 103 ± 3.2 | 102 ± 1.6 | 100 ± 3.7 | 108 ± 4.5 | 92.4 ± 2
4 | Cn1cc(/C=C/C(=O)c2cccc(F)c2)cc1/C=C/C(=O)NO [MC1568] | 109.3 ± 0.42 | 106.9 ± 0.32 | 103 ± 7.3 | 104 ± 2.1 | 98.5 ± 4.7 | 102.6 ± 0.25 | 99.97 ± 0.52 | 98 ± 1 | 99.34 ± 0.99 | 98.5 ± 1.1 | 100 ± 1.3 | 101 ± 1.5
5 | CC(C)C[C@@H](C=O)NC(=O)[C@H](CC(C)C)NC(=O)[C@H](CC(C)C)NC(=O)OCc1ccccc1 [MG-132] | 104 ± 2.3 | 102 ± 4 | 99.9 ± 1.6 | 94.63 ± 0.69 | 4.41 ± 0.73 | 1.52 ± 0.059 | 99.8 ± 3.3 | 93.4 ± 2.7 | 95.3 ± 4.2 | 53.7 ± 8.3 | 2 ± 0.3 | 1.393 ± 0.0089
6 | Nc1ccccc1NC(=O)c1ccc(CNc2nccc(-c3cccnc3)n2)cc1 [MGCD0103 (Mocetinostat)] | 102.2 ± 1 | 100.9 ± 0.78 | 93.91 ± 0.76 | 83.5 ± 1.2 | 82.8 ± 1.6 | 34.1 ± 1.1 | 99.5 ± 1.3 | 102 ± 1.1 | 105.6 ± 0.9 | 93.1 ± 2.1 | 68.6 ± 0.98 | 18.5 ± 0.42
7 | O=C(CN1C(=O)C2(CCCC2)NC[C@H]1c1cc(F)cc(F)c1)Nc1ccc2c(c1)C[C@@]1(C2)C(=O)Nc2ncccc21 [MK 3207 hydrochloride] | 114 ± 1.5 | 114 ± 1.4 | 114.8 ± 0.14 | 113 ± 3.3 | 116.5 ± 0.26 | 104 ± 2.5 | 103 ± 1.3 | 103 ± 1.4 | 101.4 ± 0.9 | 101.2 ± 0.77 | 102 ± 2 | 102 ± 1.4
8 | O=C(O)CC[C@H]1CC[C@@](c2cc(F)ccc2F)(S(=O)(=O)c2ccc(Cl)cc2)CC1 [MK-0752] | 108 ± 3.6 | 104 ± 3.3 | 102 ± 3.8 | 98.1 ± 2.5 | 101.6 ± 0.5 | 97 ± 5 | 115 ± 4.2 | 108 ± 0.7 | 107 ± 1.9 | 111.21 ± 0.076 | 106 ± 5.4 | 111 ± 1.3
9 | NC1(c2ccc(-c3nc4ccn5c(=O)[nH]nc5c4cc3-c3ccccc3)cc2)CCC1 [MK-2206] | 102.1 ± 0.84 | 102 ± 4.5 | 101 ± 2.4 | 98.62 ± 0.66 | 95.7 ± 1.4 | 59 ± 3.6 | 79.7 ± 4.3 | 81.98 ± 0.32 | 79.4 ± 1.1 | 77.6 ± 1.3 | 74 ± 2.4 | 25.2 ± 3.4
10 | S=C(NCc1ccc2c(c1)OCO2)N1CCN(c2ncnc3c2oc2ccccc23)CC1 [MP-470] | 105 ± 1.2 | 116 ± 4.3 | 112 ± 2.3 | 125 ± 1.3 | 118 ± 4.8 | 116.2 ± 0.7 | 88.5 ± 5.1 | 104 ± 1.4 | 103.8 ± 0.57 | 106 ± 1.4 | 105.95 ± 0.02 | 112 ± 3.2
11 | Nc1ccccc1NC(=O)c1ccc(CNC(=O)OCc2cccnc2)cc1 [MS-275] | 103 ± 3.7 | 109.1 ± 0.37 | 96.5 ± 1 | 82.7 ± 3.8 | 83 ± 2.6 | 64.11 ± 0.47 | 100.1 ± 0.8 | 99.4 ± 1.4 | 98.42 ± 0.37 | 95.9 ± 1.2 | 81.09 ± 0.74 | 39.1 ± 0.61
12 | COC(=O)C1=C(C)NC(C)=C(C(=O)OCCN2CCN(C(c3ccccc3)c3ccccc3)CC2)C1c1cccc([N+](=O)[O-])c1 (stereo not drawn) [Manidipine HCl (CV-4093)] | 110.7 ± 1 | 110.4 ± 0.56 | 104.3 ± 0.49 | 109 ± 2 | 107 ± 4 | 94.55 ± 0.56 | 90.9 ± 2 | 90 ± 1.3 | 98 ± 1.7 | 100.85 ± 0.1 | 89.9 ± 1.2 | 74.2 ± 1.2
13 | COC(=O)C1=C(C)NC(C)=C(C(=O)OCCN2CCN(C(c3ccccc3)c3ccccc3)CC2)C1c1cccc([N+](=O)[O-])c1 (stereo not drawn) [Manidipine] | 101 ± 4 | 102 ± 1.7 | 99.9 ± 1.5 | 97.7 ± 1.7 | 93.8 ± 1.4 | 96.95 ± 0.61 | 109 ± 3.1 | 108 ± 2.9 | 106 ± 2 | 108 ± 2.5 | 103 ± 2.2 | 101 ± 6.2
14 | CNCCCC12CCC(c3ccccc31)c1ccccc12 [Maprotiline HCl] | 124.2 ± 0.15 | 114 ± 4.2 | 109 ± 5.4 | 107 ± 3.5 | 107.1 ± 0.36 | 82.2 ± 3.8 | 101 ± 1.2 | 102 ± 1.2 | 99.43 ± 0.5 | 95.4 ± 4.2 | 87.6 ± 2.2 | 64.61 ± 0.13
15 | Cc1nnc(C(C)C)n1[C@H]1C[C@H]2CC[C@@H](C1)N2CC[C@H](NC(=O)C1CCC(F)(F)CC1)c1ccccc1 [Maraviroc (Selzentry)] | 94.8 ± 3.3 | 106 ± 1.5 | 107 ± 2.3 | 101 ± 2.6 | 108.3 ± 0.76 | 107 ± 1.8 | 100.6 ± 0.78 | 101 ± 2.7 | 99.264 ± 0.066 | 103 ± 2.9 | 98.1 ± 1.4 | 97.2 ± 1.1
16 | Cc1ccc(NC(=O)c2ccc(CN3CCN(C)CC3)cc2)cc1Nc1nc(-c2cccnc2)cs1 [Masitinib (AB1010)] | 116 ± 1.7 | 103 ± 4.6 | 103 ± 6.5 | 115.4 ± 0.45 | 107 ± 2.1 | 53.4 ± 14 | 104.3 ± 0.28 | 105 ± 1.6 | 107.1 ± 0.95 | 103 ± 2.9 | 104 ± 1.3 | 36.5 ± 2.2
17 | Cc1[nH]c(=O)c(C#N)cc1-c1ccncc1 [Milrinone (Primacor)] | 109 ± 3.1 | 114 ± 2.9 | 110 ± 2 | 103.33 ± 0.049 | 107 ± 3.9 | 107 ± 1.4 | 95.74 ± 0.27 | 91.11 ± 0.53 | 95.5 ± 9.2 | 91.8 ± 3.8 | 91.27 ± 0.77 | 89.3 ± 2.9
18 | O=C1c2c(O)ccc(O)c2C(=O)c2c(NCCNCCO)ccc(NCCNCCO)c21 [Mitoxantrone] | 79.5 ± 1.5 | 70.5 ± 3.2 | 65.8 ± 4.4 | 33.21 ± 0.054 | 5.07 ± 0.86 | 2.13 ± 0.16 | 94.9 ± 2.3 | 87.32 ± 0.1 | 90.41 ± 0.1 | 36.95 ± 0.31 | 8.71 ± 0.34 | 3.19 ± 0.27
19 | NC(=O)c1ncn([C@@H]2O[C@H](CO)[C@@H](O)[C@H]2O)c1O [Mizoribine] | 102 ± 2.1 | 98.3 ± 1.2 | 102 ± 1.2 | 100.8 ± 0.97 | 99.9 ± 2.9 | 92.9 ± 2.9 | 104.1 ± 0.62 | 99.8 ± 2 | 99.1 ± 2.2 | 105 ± 3.8 | 98.1 ± 2.5 | 97.4 ± 2.2
